Results: PMC11022729 (Advanced Science, 2024)

Experiments:
[1] = target: histamine H2 receptor (Homo sapiens, UniProt P25021); assay: SafetyScreen44 panel; settings: read-out: binding inhibition
Method: (§1) Measurements were performed in duplicate.
(§2) channel, which were obtainedfrom ratspecimens).
(§3) in brackets) specific for each target.

[2] = target: human ether-à-go-go (hERG) potassium channel (Homo sapiens, UniProt Q12809); assay: SafetyScreen44 panel; settings: 10 µM
Method: as §1, §2, §3

[3] = target: muscarinic M2 receptor (Homo sapiens, UniProt P08172); assay: SafetyScreen44 panel; settings: read-out: binding inhibition
Method: as §1, §2, §3

[4] = target: T1, serotonin 5-HT1A receptor (Homo sapiens, UniProt P08908); assay: SafetyScreen44 panel; settings: read-out: binding inhibition
T1 construct: purchased Eurofins Cerep P270
Method: as §1, §2, §3

[5] = target: T2, serotonin 5-HT1B receptor (Homo sapiens, UniProt P28222); assay: SafetyScreen44 panel; settings: read-out: binding inhibition
T2 construct: purchased Eurofins Cerep P270
Method: as §1, §2, §3

[6] = target: serotonin 5-HT3 receptor (Homo sapiens, UniProt P46098); assay: SafetyScreen44 panel; settings: read-out: binding inhibition
Method: as §1, §2, §3

[7] = test system: Na+ channel; assay: SafetyScreen44 panel; settings: 10 µM
[8] = target: T3, human D2S receptor (Homo sapiens, UniProt P14416); assay: [3H]-spiperone competition binding assay, D2
T3 construct: expressed in transfected cells; host or cells: CHO
Method: CHO cells stably expressing human dopamine D2short (D2R) and D3 receptor (D3R) were washed and harvested using PBS. […] The cell membrane homogenate was centrifuged (20 000 × g, 20 min, 4 °C), and the resulting cell pellet was resuspended in the binding buffer. Crude membrane extracts were kept at −80 °C until use. Before starting the experiments, cell membranes were thawed, homogenized by sonication (3 × 10 s), and stored in an ice‐cold binding buffer. […] Assays were performed at least in triplicate with appropriate concentrations ranging from 0.01 nM to 100 µM of the test compound. Non‐specific binding was determined using 10 µM haloperidol. By filtering through GF/B filters pretreated with 0.3% (m/v) polyethyleneimine, the bound radioligand was separated from free radioligand using a cell harvester. Radioactivity was measured using liquid scintillation counting. Data were evaluated using the GraphPad Prism 9 software (San Diego, CA, USA) with a nonlinear regression fit.

[9] = test system: mice; assay: β-alanine-induced itch behavior; assay type: in vivo, mouse; settings: i.p.
From the text: (§4) Chloroquine‐induced scratching in mice is driven by MrgprA3 activation in the NP2 population of sensory neurons.^[ [10], [29] ^] To further explore the antipruritic efficacy of compound 6 in histamine‐independent itch, we assessed the behavioral response after s.c. injection of the peptide Ser‐Leu‐Ile‐Gly‐Arg‐Leu (SLIGRL) that evokes scratching by activation of MrgprC11,^[ [30] ^] which is expressed in the NP2 and NP3 population.^[ [10] ^] […] Moreover, compound 6 ameliorated histamine‐independent itch evoked by s.c. injection of β‐alanine that activates MrgprD^[ [31] ^] in the NP1 population of sensory neurons^[ [10] ^] (Figure 3F). In contrast, scratching induced by subcutaneous histamine was not affected by compound 6 (Figure 3G). The lack of an effect on histamine‐evoked scratching was supported by the low affinity of compound 6 for histamine H1 receptors, which was determined using a [^3H]‐pyrilamine competition binding assay in vitro (Table S3, Supporting Information). […] We also investigated the efficacy of compound 6 after peroral (p.o.) delivery.
(§5) Three to four days before the day of the experiment, the fur on the dorsolateral aspect of the neck was shaved under brief isoflurane anesthesia. […] Number of scratching bouts directed toward the nape of the neck was assessed over 30 min by videotaping. […]

[10] = test system: mice; assay: Histamine-induced itch behavior; assay type: in vivo, mouse; settings: i.p.
From the text: as §4, §5

[11] = test system: mice; assay: DNFB model of allergic contact dermatitis (persistent itch); assay type: in vivo, mouse; settings: i.p. after the second DNFB exposure, vs vehicle
Method: We next assessed the efficacy of compound 6 in the treatment of chronic itching. […] These findings are important because they indicate that Slack activators can reduce existing itching.
To induce persistent itch, a model of allergic contact dermatitis^[ [32] ^] was used. The fur on the dorsolateral aspect of the neck was shaved under brief isoflurane anesthesia. Three to four days later, the shaved skin area was exposed to 100 µL of 0.15% 2,4‐dinitrofluorobenzene (DNFB) in acetone/olive oil (3:1). After 10–11 days, the skin was shaved again, and the DNFB solution was applied 3–4 days later (i.e., two painting sessions 14 days apart). Ninety minutes after the second DNFB application, the mice were habituated to a plexiglass cylinder (30 cm diameter) for 15 min. Compound 6 hydrochloride or vehicle was administered i.p., and 15 min later, spontaneous scratching was recorded over 30 min by videotaping.

[12] = test system: mice; assay: Pulse oximetry in conscious, freely moving mice; settings: 10 mg kg−1 i.p., observation period of 30 min
Method: To measure cardiovascular function, a pulse oximeter (MouseOX Plus, Starr Life Sciences Corp.) was used in conscious, freely moving mice. After three consecutive days of habituating the mice to the collar clip for at least 30 min, baseline measurements were performed. […] All the datasets were sampled at 1 Hz, error‐corrected according to the manufacturer's instructions, and averaged over 300 s for each time point.

[13] = test system: mice; assay: Von Frey filament test; assay type: in vivo; settings: 10 mg kg−1 i.p., hindpaws, vs vehicle
[14] = test system: IB4-binding DRG neurons; assay: Whole-cell current-clamp recordings on sensitized DRG neurons; assay type: cell-based, mouse; settings: 50 µM
[15] = target: histamine H1 receptor (Homo sapiens, UniProt P35367); assay: SafetyScreen44 panel; assay type: binding; set-up: purchased Eurofins Cerep P270; settings: 10 µM
Method: as §1, §2, §3

T3 sequence (P14416 1-414 isoform P14416-2): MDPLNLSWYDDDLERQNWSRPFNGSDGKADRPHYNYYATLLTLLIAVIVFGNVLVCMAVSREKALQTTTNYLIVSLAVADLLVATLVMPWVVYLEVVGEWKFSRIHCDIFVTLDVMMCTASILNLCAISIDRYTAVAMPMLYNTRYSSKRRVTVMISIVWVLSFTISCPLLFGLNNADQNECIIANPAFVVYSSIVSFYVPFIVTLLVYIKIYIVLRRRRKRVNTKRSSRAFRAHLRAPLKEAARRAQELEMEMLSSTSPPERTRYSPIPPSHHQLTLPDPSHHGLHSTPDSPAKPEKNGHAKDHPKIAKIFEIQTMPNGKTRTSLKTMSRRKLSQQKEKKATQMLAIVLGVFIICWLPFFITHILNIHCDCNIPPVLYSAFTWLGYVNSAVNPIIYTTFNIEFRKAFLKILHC
T1 sequence (P08908 whole entry): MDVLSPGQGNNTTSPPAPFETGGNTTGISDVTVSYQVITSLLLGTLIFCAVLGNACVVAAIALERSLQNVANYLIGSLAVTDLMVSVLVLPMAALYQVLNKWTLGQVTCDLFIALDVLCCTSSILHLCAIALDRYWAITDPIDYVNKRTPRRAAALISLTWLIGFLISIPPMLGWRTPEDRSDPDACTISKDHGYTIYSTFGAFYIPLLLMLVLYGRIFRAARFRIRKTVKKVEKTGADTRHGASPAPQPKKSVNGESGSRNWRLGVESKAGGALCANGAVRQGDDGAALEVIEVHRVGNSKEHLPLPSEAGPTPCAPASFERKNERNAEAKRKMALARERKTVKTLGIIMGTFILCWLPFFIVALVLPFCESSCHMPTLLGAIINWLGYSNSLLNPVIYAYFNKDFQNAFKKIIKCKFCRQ
histamine H1 receptor, sequence (P35367 whole entry): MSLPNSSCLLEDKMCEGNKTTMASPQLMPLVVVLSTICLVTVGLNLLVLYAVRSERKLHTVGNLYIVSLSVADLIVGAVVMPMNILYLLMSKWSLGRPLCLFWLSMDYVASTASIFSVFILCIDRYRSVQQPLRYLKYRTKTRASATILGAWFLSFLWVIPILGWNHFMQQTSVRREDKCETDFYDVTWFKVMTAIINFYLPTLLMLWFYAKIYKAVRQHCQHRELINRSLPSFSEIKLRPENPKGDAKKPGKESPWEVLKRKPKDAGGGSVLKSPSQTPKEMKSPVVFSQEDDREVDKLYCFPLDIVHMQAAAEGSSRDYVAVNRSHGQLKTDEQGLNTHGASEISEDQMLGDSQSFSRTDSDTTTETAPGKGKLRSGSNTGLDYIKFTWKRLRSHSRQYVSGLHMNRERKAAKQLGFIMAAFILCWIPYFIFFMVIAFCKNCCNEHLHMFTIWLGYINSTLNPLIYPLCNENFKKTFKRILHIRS
human ether-à-go-go (hERG) potassium channel, sequence (Q12809 whole entry): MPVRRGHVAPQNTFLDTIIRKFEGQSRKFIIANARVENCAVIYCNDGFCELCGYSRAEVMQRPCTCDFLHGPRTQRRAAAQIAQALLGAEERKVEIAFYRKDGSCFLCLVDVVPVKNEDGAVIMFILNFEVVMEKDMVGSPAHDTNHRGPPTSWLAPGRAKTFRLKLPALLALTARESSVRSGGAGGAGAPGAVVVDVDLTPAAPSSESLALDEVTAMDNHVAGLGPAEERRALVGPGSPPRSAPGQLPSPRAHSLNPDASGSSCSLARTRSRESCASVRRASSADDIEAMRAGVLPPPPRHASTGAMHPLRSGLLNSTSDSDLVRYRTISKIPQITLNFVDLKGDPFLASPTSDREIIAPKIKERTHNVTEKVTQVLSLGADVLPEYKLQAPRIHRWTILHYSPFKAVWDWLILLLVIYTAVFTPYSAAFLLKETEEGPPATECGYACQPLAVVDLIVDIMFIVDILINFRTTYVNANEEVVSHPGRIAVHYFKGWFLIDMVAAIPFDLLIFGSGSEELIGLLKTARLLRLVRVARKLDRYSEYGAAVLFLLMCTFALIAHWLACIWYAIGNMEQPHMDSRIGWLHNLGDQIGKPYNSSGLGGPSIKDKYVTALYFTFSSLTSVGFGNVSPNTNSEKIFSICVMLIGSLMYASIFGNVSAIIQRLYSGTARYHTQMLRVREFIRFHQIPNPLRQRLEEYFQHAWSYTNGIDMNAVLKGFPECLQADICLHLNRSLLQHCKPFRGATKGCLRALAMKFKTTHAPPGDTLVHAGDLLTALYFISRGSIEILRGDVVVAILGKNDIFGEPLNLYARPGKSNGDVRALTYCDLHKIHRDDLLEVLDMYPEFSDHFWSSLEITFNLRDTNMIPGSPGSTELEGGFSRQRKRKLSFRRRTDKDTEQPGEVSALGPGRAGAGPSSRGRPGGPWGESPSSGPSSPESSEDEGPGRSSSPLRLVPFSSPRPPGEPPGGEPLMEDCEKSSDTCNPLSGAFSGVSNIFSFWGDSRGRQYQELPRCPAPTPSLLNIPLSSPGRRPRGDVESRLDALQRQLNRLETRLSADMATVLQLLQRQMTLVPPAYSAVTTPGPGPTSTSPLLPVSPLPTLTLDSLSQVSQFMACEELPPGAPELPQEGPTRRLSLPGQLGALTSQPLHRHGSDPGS
histamine H2 receptor, sequence (P25021 whole entry): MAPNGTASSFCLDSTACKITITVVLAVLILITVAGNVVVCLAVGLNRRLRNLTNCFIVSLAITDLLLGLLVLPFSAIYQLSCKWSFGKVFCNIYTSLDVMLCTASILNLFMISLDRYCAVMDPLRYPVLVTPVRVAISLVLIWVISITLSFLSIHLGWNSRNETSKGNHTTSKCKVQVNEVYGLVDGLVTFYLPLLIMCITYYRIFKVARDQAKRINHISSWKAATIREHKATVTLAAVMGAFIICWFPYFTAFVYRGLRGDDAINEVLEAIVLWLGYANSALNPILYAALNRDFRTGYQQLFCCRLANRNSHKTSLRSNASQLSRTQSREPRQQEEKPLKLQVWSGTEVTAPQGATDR
T2 sequence (P28222 whole entry): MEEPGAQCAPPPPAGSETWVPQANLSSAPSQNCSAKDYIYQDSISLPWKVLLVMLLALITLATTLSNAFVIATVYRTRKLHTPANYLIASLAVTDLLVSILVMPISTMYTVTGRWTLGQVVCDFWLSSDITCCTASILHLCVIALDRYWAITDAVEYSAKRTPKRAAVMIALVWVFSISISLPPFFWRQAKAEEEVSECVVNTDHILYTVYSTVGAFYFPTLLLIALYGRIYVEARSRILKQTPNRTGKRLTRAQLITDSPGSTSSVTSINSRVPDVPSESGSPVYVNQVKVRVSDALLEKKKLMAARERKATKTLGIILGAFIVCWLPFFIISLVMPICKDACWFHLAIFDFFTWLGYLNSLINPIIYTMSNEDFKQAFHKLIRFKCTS
serotonin 5-HT3 receptor, sequence (P46098 24-478): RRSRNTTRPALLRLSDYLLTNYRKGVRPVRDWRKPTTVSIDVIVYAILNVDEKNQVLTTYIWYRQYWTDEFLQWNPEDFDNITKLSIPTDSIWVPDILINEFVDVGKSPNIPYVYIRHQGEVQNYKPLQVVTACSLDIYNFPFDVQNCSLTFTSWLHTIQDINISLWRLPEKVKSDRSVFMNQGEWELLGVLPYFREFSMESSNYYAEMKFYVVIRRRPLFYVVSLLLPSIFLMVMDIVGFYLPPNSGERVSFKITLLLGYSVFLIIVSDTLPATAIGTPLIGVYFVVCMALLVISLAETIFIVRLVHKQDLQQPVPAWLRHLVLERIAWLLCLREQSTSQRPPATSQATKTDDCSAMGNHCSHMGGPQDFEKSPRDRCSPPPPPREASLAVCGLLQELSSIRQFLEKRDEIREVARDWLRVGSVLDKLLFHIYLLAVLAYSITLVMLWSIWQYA
muscarinic M2 receptor, sequence (P08172 whole entry): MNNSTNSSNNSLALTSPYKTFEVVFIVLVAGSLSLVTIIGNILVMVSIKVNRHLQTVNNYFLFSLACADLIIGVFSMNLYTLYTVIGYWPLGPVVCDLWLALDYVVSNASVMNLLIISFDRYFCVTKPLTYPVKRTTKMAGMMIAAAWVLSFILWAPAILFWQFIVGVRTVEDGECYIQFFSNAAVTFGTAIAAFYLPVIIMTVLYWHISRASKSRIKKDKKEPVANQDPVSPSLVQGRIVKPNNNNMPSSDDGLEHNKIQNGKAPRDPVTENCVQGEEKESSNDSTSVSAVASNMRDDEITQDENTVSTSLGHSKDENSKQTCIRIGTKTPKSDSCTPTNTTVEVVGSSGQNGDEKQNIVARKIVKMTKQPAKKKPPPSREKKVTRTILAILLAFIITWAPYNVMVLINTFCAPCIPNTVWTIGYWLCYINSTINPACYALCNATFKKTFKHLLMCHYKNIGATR

CN1CCN(C2=Nc3ccccc3Oc3ccc(Cl)cc32)CC1 [Loxapine, reference compound]
inhibition at 10 µM [1]: > 50% | binding [2]: did not measurably bind | inhibition at 10 µM [3]: > 50% | inhibition at 10 µM [4]: > 50% | inhibition at 10 µM [5]: > 50% | inhibition at 10 µM [6]: > 50% | binding inhibition [7]: higher than 50%

O=C(O)COCCN1CCN(C2=Nc3ccccc3Oc3ccc(Cl)cc32)CC1 [Compound 6]
fold lower affinity against D2 as compared to loxapine [8]: ≈ 40 fold | Ki ([8]; mean [CI 95%]): 1.28 µM | itch evoked by s.c. injection of β-alanine [9]: ameliorated | scratching induced by subcutaneous histamine [10]: not affected | number of head shakes [11]: significantly reduced | number of scratching bouts [11]: significantly reduced | breath rate [12]: did not affect | heart rate [12]: did not affect | mechanical sensitivity (von Frey filament test) [13]: Neither mechanical nor thermal sensitivity was altered | AP amplitude ([14]; cells with recorded APs): Neither compound 6 nor the vehicle had a significant effect | AP duration at 90% repolarization (APD90) ([14]; cells with recorded APs): Neither compound 6 nor the vehicle had a significant effect | resting membrane potential (RMP) ([14]; current injection 200–950 pA): Neither compound 6 nor the vehicle significantly affected | number of AP fired ([14]; current injection 200–950 pA, after inflammatory soup): profound decrease | rheobase compared to baseline ([14]; in the 7 cells with recorded APs): visibly, but not significantly, increased | cells that elicited APs ([14]; small currents (0–220 pA), vehicle 11 of 11): 7 of 13 | binding inhibition [15]: substantial binding
